4 compounds from PubChem BioAssay AID256 (DTP/NCI, 2004) can be followed below.

“And” between values parts separate entries of the source, which are not always exact repeats. Equal entries are not always repeated. Inconclusive results and toxic doses are left out.

The subject of this test is CD2F1 mice, L1210 leukemia ip, survival T/C. Kind of test: NCI In Vivo Anticancer Drug Screen. Data for tumor model L1210 Leukemia (intraperitoneal) in CD2F1 (CDF1) mice. As to conditions: higher = longer survival. The method, boiled down: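 Transplantable tumor in mice; compound-treated vs vehicle-treated groups. Read-out = treated/control ratio of the measured endpoint.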

As for `O=C1NC2(CCCCC2)C(=O)N1CCN(CCCl)CCCl`, the T/C (endpoint: median survival time, dose: 0.5 mg/kg/injection, schedule: Q03HX024 (ip), vehicle: Klucel (hydroxypropylcellulose) (HPC)) is 98 % of control; the T/C (endpoint: median survival time, dose: 1.0 mg/kg/injection, schedule: Q01DX009 (ip), vehicle: Klucel (hydroxypropylcellulose) (HPC)) is 101 % of control; the T/C (endpoint: median survival time, dose: 1.0 mg/kg/injection, schedule: Q01DX009 (sc), vehicle: Klucel (hydroxypropylcellulose) (HPC)) was 98 % of control; the T/C (endpoint: median survival time, dose: 1.0 mg/kg/injection, schedule: Q03HX016 (ip), vehicle: Klucel (hydroxypropylcellulose) (HPC)) was 96 % of control; the T/C (endpoint: median survival time, dose: 1.0 mg/kg/injection, schedule: Q03HX024 (ip), vehicle: Klucel (hydroxypropylcellulose) (HPC)) is 98 % of control; the T/C (endpoint: median survival time, dose: 2.0 mg/kg/injection, schedule: Q01DX009 (ip), vehicle: Klucel (hydroxypropylcellulose) (HPC)) was 101 % of control. Moreover, the T/C reads like this: (endpoint: median survival time, dose: 2.0 mg/kg/injection, schedule: Q01DX009 (sc), vehicle: Klucel (hydroxypropylcellulose) (HPC)) 101 % of control; (endpoint: median survival time, dose: 2.0 mg/kg/injection, schedule: Q03HX008 (ip), vehicle: Klucel (hydroxypropylcellulose) (HPC)) 110 % of control; (endpoint: median survival time, dose: 2.0 mg/kg/injection, schedule: Q03HX016 (ip), vehicle: Klucel (hydroxypropylcellulose) (HPC)) 104 % of control; (endpoint: median survival time, dose: 2.0 mg/kg/injection, schedule: Q03HX024 (ip), vehicle: Klucel (hydroxypropylcellulose) (HPC)) 106 % of control; (endpoint: median survival time, dose: 4.0 mg/kg/injection, schedule: Q01DX009 (ip), vehicle: Klucel (hydroxypropylcellulose) (HPC)) 107 % of control; (endpoint: median survival time, dose: 4.0 mg/kg/injection, schedule: Q01DX009 (oral), vehicle: Klucel (hydroxypropylcellulose) (HPC)) 123 % of control. The T/C is 103 % of control (endpoint: median survival time, dose: 4.0 mg/kg/injection, schedule: Q01DX009 (sc), vehicle: Klucel (hydroxypropylcellulose) (HPC)); 106 % of control (endpoint: median survival time, dose: 4.0 mg/kg/injection, schedule: Q03HX008 (ip), vehicle: Klucel (hydroxypropylcellulose) (HPC)); 103 % of control (endpoint: median survival time, dose: 4.0 mg/kg/injection, schedule: Q03HX016 (ip), vehicle: Klucel (hydroxypropylcellulose) (HPC)); 109 % of control (endpoint: median survival time, dose: 4.0 mg/kg/injection, schedule: Q03HX024 (ip), vehicle: Klucel (hydroxypropylcellulose) (HPC)); 100 % of control (endpoint: median survival time, dose: 4.0 mg/kg/injection, schedule: Q04DX003 (ip), vehicle: Klucel (hydroxypropylcellulose) (HPC)); 153 % of control (endpoint: median survival time, dose: 6.0 mg/kg/injection, schedule: Q01DX009 (ip), vehicle: Klucel (hydroxypropylcellulose) (HPC)). The T/C is, setting by setting: (endpoint: median survival time, dose: 8.0 mg/kg/injection, schedule: Q01DX009 (ip), vehicle: Klucel (hydroxypropylcellulose) (HPC)) 106 % of control; (endpoint: median survival time, dose: 8.0 mg/kg/injection, schedule: Q01DX009 (oral), vehicle: Klucel (hydroxypropylcellulose) (HPC)) 115 % of control; (endpoint: median survival time, dose: 8.0 mg/kg/injection, schedule: Q01DX009 (sc), vehicle: Klucel (hydroxypropylcellulose) (HPC)) 114 % of control; (endpoint: median survival time, dose: 8.0 mg/kg/injection, schedule: Q03HX008 (ip), vehicle: Klucel (hydroxypropylcellulose) (HPC)) 115 % of control; (endpoint: median survival time, dose: 8.0 mg/kg/injection, schedule: Q03HX016 (ip), vehicle: Klucel (hydroxypropylcellulose) (HPC)) 111 % of control; (endpoint: median survival time, dose: 8.0 mg/kg/injection, schedule: Q03HX024 (ip), vehicle: Klucel (hydroxypropylcellulose) (HPC)) 122 % of control. The T/C reads like this: (endpoint: median survival time, dose: 8.0 mg/kg/injection, schedule: Q04DX003 (ip), vehicle: Klucel (hydroxypropylcellulose) (HPC)) 103 % of control; (endpoint: median survival time, dose: 8.0 mg/kg/injection, schedule: Q08DX002 (ip), vehicle: Klucel (hydroxypropylcellulose) (HPC)) 106 % of control; (endpoint: median survival time, dose: 9.0 mg/kg/injection, schedule: Q01DX009 (ip), vehicle: Klucel (hydroxypropylcellulose) (HPC)) 157 % of control and 164 % of control; (endpoint: median survival time, dose: 13.0 mg/kg/injection, schedule: Q01DX009 (ip), vehicle: Klucel (hydroxypropylcellulose) (HPC)) 164 % of control and 176 % of control; (endpoint: median survival time, dose: 16.0 mg/kg/injection, schedule: Q01DX001 (ip), vehicle: Klucel (hydroxypropylcellulose) (HPC)) 116 % of control; (endpoint: median survival time, dose: 16.0 mg/kg/injection, schedule: Q01DX001 (sc), vehicle: Klucel (hydroxypropylcellulose) (HPC)) 92 % of control. Moreover, the T/C (endpoint: median survival time, dose: 16.0 mg/kg/injection, schedule: Q01DX009 (ip), vehicle: Klucel (hydroxypropylcellulose) (HPC)) is 112 % of control; the T/C (endpoint: median survival time, dose: 16.0 mg/kg/injection, schedule: Q01DX009 (oral), vehicle: Klucel (hydroxypropylcellulose) (HPC)) was 112 % of control; the T/C (endpoint: median survival time, dose: 16.0 mg/kg/injection, schedule: Q01DX009 (sc), vehicle: Klucel (hydroxypropylcellulose) (HPC)) is 107 % of control; the T/C (endpoint: median survival time, dose: 16.0 mg/kg/injection, schedule: Q03HX008 (ip), vehicle: Klucel (hydroxypropylcellulose) (HPC)) was 122 % of control; the T/C (endpoint: median survival time, dose: 16.0 mg/kg/injection, schedule: Q04DX003 (ip), vehicle: Klucel (hydroxypropylcellulose) (HPC)) is 113 % of control; the T/C (endpoint: median survival time, dose: 16.0 mg/kg/injection, schedule: Q08DX002 (ip), vehicle: Klucel (hydroxypropylcellulose) (HPC)) is 109 % of control. In addition, the T/C reads like this: (endpoint: median survival time, dose: 32.0 mg/kg/injection, schedule: Q01DX001 (ip), vehicle: Klucel (hydroxypropylcellulose) (HPC)) 122 % of control; (endpoint: median survival time, dose: 32.0 mg/kg/injection, schedule: Q01DX001 (oral), vehicle: Klucel (hydroxypropylcellulose) (HPC)) 100 % of control; (endpoint: median survival time, dose: 32.0 mg/kg/injection, schedule: Q01DX001 (sc), vehicle: Klucel (hydroxypropylcellulose) (HPC)) 101 % of control; (endpoint: median survival time, dose: 32.0 mg/kg/injection, schedule: Q01DX009 (oral), vehicle: Klucel (hydroxypropylcellulose) (HPC)) 123 % of control; (endpoint: median survival time, dose: 32.0 mg/kg/injection, schedule: Q01DX009 (sc), vehicle: Klucel (hydroxypropylcellulose) (HPC)) 106 % of control; (endpoint: median survival time, dose: 32.0 mg/kg/injection, schedule: Q04DX003 (ip), vehicle: Klucel (hydroxypropylcellulose) (HPC)) 114 % of control. Also, the T/C runs as follows: (endpoint: median survival time, dose: 32.0 mg/kg/injection, schedule: Q08DX002 (ip), vehicle: Klucel (hydroxypropylcellulose) (HPC)) 114 % of control; (endpoint: median survival time, dose: 64.0 mg/kg/injection, schedule: Q01DX001 (ip), vehicle: Klucel (hydroxypropylcellulose) (HPC)) 117 % of control; (endpoint: median survival time, dose: 64.0 mg/kg/injection, schedule: Q01DX001 (oral), vehicle: Klucel (hydroxypropylcellulose) (HPC)) 101 % of control; (endpoint: median survival time, dose: 64.0 mg/kg/injection, schedule: Q01DX001 (sc), vehicle: Klucel (hydroxypropylcellulose) (HPC)) 102 % of control; (endpoint: median survival time, dose: 64.0 mg/kg/injection, schedule: Q01DX009 (oral), vehicle: Klucel (hydroxypropylcellulose) (HPC)) 124 % of control; (endpoint: median survival time, dose: 64.0 mg/kg/injection, schedule: Q08DX002 (ip), vehicle: Klucel (hydroxypropylcellulose) (HPC)) 119 % of control. Further, the T/C was 104 % of control (endpoint: median survival time, dose: 128.0 mg/kg/injection, schedule: Q01DX001 (oral), vehicle: Klucel (hydroxypropylcellulose) (HPC)); 105 % of control (endpoint: median survival time, dose: 128.0 mg/kg/injection, schedule: Q01DX001 (sc), vehicle: Klucel (hydroxypropylcellulose) (HPC)); 110 % of control (endpoint: median survival time, dose: 128.0 mg/kg/injection, schedule: Q08DX002 (ip), vehicle: Klucel (hydroxypropylcellulose) (HPC)); 116 % of control (endpoint: median survival time, dose: 256.0 mg/kg/injection, schedule: Q01DX001 (ip), vehicle: Klucel (hydroxypropylcellulose) (HPC)); 107 % of control (endpoint: median survival time, dose: 256.0 mg/kg/injection, schedule: Q01DX001 (oral), vehicle: Klucel (hydroxypropylcellulose) (HPC)); 104 % of control (endpoint: median survival time, dose: 256.0 mg/kg/injection, schedule: Q01DX001 (sc), vehicle: Klucel (hydroxypropylcellulose) (HPC)). Under “endpoint: median survival time, dose: 512.0 mg/kg/injection, schedule: Q01DX001 (oral), vehicle: Klucel (hydroxypropylcellulose) (HPC)”, the T/C is 107 % of control.

Turning to `CC1(C)Oc2[nH]c(=O)n(-c3ccc(Cl)cc3)c(=O)c2C1c1ccc(Cl)cc1` (centres undefined), the T/C is 102 % of control (endpoint: mean survival time, dose: 100.0 mg/kg/injection, schedule: Q04DX002 (ip), vehicle: saline with Tween-80); 105 % of control (endpoint: mean survival time, dose: 200.0 mg/kg/injection, schedule: Q04DX002 (ip), vehicle: saline with Tween-80); 109 % of control (endpoint: mean survival time, dose: 400.0 mg/kg/injection, schedule: Q04DX002 (ip), vehicle: saline with Tween-80).

Turning to `COc1ccccc1C(=O)C(=O)c1ccccc1OC`, the T/C reads like this: (endpoint: mean survival time, dose: 100.0 mg/kg/injection, schedule: Q04DX003 (ip), vehicle: saline with Tween-80) 100 % of control; (endpoint: mean survival time, dose: 200.0 mg/kg/injection, schedule: Q04DX003 (ip), vehicle: saline with Tween-80) 96 % of control; (endpoint: mean survival time, dose: 400.0 mg/kg/injection, schedule: Q04DX003 (ip), vehicle: saline with Tween-80) 100 % of control.

For the compound `CCOC1OC(C(COC(C)=O)OC(C)=O)C(OC(C)=O)C(OC(C)=O)C1OC(C)=O` (centres undefined), the T/C by setting is: (endpoint: mean survival time, dose: 100.0 mg/kg/injection, schedule: Q01DX001 (ip), vehicle: saline with Tween-80) 104 % of control; (endpoint: mean survival time, dose: 200.0 mg/kg/injection, schedule: Q01DX001 (ip), vehicle: saline with Tween-80) 96 % of control; (endpoint: mean survival time, dose: 400.0 mg/kg/injection, schedule: Q01DX001 (ip), vehicle: saline with Tween-80) 101 % of control.
